Source: patent US11807650B2, “NMDA receptor modulators and uses thereof” (Novartis AG, priority 2016, dated 2023)

Experiments:
[1] = target: T1, human GRIN1 (transcript variant NR1-3) and GRIN2D expressed in Xenopus oocytes (Homo sapiens, UniProt O15399); test: NR2D oocyte potentiation assay (two-electrode voltage clamp); assay type: cell-based; details: 10 uM test compound; glutamate and glycine 10 μM each; holding potential −40 mV
T1 construct: GenScript (GRIN2D synthesis) SC115601; host or cells: Xenopus oocytes injected with cRNA (1 GluN1 : 2 GluN2)
T1 sequence (O15399 28-1336, other chains not shown): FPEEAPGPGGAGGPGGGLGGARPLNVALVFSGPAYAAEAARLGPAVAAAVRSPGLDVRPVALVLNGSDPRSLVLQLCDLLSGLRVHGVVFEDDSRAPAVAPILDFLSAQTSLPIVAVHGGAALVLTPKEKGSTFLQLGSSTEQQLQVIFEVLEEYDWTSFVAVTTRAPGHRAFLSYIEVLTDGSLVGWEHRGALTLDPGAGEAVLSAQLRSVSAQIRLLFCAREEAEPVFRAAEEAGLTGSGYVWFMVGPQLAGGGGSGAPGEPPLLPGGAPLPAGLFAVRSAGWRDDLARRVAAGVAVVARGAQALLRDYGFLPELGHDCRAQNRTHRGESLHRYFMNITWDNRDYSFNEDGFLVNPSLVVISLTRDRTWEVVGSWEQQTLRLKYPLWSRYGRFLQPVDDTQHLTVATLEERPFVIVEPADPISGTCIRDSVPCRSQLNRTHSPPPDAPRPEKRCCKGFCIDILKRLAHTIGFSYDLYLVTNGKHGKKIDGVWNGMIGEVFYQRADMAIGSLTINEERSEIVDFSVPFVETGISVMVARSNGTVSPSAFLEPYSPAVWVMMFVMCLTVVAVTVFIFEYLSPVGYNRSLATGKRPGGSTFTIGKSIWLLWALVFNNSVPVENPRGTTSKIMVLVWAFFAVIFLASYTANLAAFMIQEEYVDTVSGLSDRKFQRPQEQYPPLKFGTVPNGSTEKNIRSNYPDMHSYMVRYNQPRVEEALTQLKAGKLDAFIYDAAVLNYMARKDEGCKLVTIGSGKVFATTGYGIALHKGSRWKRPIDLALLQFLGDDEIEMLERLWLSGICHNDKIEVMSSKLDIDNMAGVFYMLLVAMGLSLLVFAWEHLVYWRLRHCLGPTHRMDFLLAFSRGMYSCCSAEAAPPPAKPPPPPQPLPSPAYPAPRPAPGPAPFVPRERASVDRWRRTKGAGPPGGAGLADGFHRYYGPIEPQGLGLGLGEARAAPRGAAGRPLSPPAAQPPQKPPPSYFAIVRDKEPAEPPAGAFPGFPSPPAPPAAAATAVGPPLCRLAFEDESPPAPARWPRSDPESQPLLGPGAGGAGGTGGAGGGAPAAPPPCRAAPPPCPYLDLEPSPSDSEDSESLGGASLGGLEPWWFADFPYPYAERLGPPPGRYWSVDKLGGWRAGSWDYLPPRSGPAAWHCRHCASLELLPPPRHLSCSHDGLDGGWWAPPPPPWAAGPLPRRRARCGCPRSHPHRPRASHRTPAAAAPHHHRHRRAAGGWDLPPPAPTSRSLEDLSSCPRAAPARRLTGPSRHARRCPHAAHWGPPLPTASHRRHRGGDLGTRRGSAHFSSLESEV
Summary of the method: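 Xenopus oocytes were defolliculated with collagenase, then injected with 50 nL of cRNA encoding human GluN1 (NR1-3 variant) and GluN2D mixed 1:2 and kept 72 h at 16° C. Two-electrode voltage clamp at −40 mV recorded currents; after 10 μM glutamate plus 10 μM glycine reached plateau, test compound was added until a new plateau formed.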

[2] = target: T2, human GRIN1 (variant NR1-3) and GRIN2D expressed in HEK293 cells (Homo sapiens, UniProt O15399); test: GluN2D PAM CIQ fluorescence assay (Fluo-8 calcium, FDSS 6000); assay type: cell-based; details: relative to CIQ (100 uM) = 100%, read-out: NR2D Percent CIQ Avg Max Measured Effect
T2 construct: GenScript (GRIN2D synthesis) SC115601; host or cells: HEK293
T2 sequence (O15399 28-1336, other chains not shown): as above
Procedure: GluN2D PAM CIO Flourescence AssayHEK293 cells were transfected to express human GRIN1 (variant NR1-3, Origene, SKU #: SC115601, Rockville, Md.) and GRIN2D (NCBI locus NM_000836, sequence optimized and synthesized by GenScript) and grown as an adherent monolayer at 37° C., 5% CO2 in DMEM/Ham's F12+10% FBS (Hyclone SH3007.03T in the presence of 2.5 mM ARL-15896 (AdooQ Bioscience, Irvine Calif.). To prepare the cells for an experiment, they were rinsed with Dulbecco's PBS (Ca^2+ and Mg^2+ free) and detached from the flask with TrypLE™ Express (Life Technologies, Carlsbad, Calif.) using the manufacturer's recommended methods. Cells collected from the flask were washed twice in Ca^2+/Mg^2+-free Hanks Balanced Salt Solution+20 mM HEPES (HBSS), and counted and assessed for viability with trypan blue. Washed cells were then dye-loaded by resuspending in Fluo-8/AM calcium sensitive dye plus Component B (AAT Bioquest, Sunnyvale, Calif.) diluted in HBSS. To allow cells to take up fluo-8 dye, they were incubated in the dark for 15 min at 37° C., followed by 30 min at 22-25° C. After dye-loading, cells were washed and resuspended in HBSS and plated in 384-well plates (Falcon 353962; Corning, Big Flats, N.Y.) at 20,000-30,000 cells/well in a final volume of 25 μl/well. The cell plates were centrifuged at 200×g, for 2 minutes at 21° C., to create a monolayer of cells at the bottom of the wells.
To initiate an assay, 10 μl of test compound or buffer was added to each well of the cell plate and pre-incubated for 10 minutes in the dark. After 10 minutes, the cell plate was placed in a FDSS 6000 plate reader (Hamamatsu Photonics, Middlesex, N.J.); baseline fluorescence readings were collected for 20 seconds. Next, 25 μl of agonist solution (3 μM glutamate, 3 μM glycine, and 1 mM Ca^2+ in HBSS) was added and the change in fluorescence was recorded for 3 minutes.
Results were calculated by comparing the effects of test compounds to that of the literature standard GluN2C/D PAM CIQ (100 uM). The increase in fluorescence in the presence of CIQ minus the increase induced by glutamate+glycine alone was set to 100%. Responses induced by compounds that were larger than gain the presence of the standard concentration of CIQ were greater than 100% and lesser responses were less than 100%.

Row | activation at 10 µM [1] | Emax [2] | NR2D Oocyte % Potentiation @ 10 uM [1] | Compound
1 | > 1000% | > 200% |  | CC1CSc2nc(-c3ccc(C(C)(C)C)nc3)c(C#N)c(=N)n2C1 (stereo not shown) [Example 63, 8-(6-(tert-butyl)pyridin-3-yl)-6-imino-3-methyl-3,4-dihydro-2H,6H-pyrimido[2,1-b][1,3]thiazine-7-carbonitrile]
2 | 500 to 1000% | > 200% |  | C/N=c1/c(C#N)c(-c2ccc(C(C)(C)C)cc2)nc2n1CCCS2 [Example 37, (Z)-8-(4-(tert-butyl)phenyl)-6-(methylimino)-3,4-dihydro-2H,6H-pyrimido[2,1-b][1,3]thiazine-7-carbonitrile]
3 | 100 to 500% | 100 to 200% |  | CC(C)(C)c1ccc(-c2nc3n(c(=O)c2C#N)CCS3)cc1 [Example 205, 7-(4-tert-butylphenyl)-5-oxo-2H,3H,5H-[1,3]thiazolo[3,2-a]pyrimidine-6-carbonitrile]
4 | 100 to 500% | 100 to 200% |  | CN(C)C(=O)/N=c1/c(C#N)c(-c2ccc(C(C)(C)C)cc2)nc2n1CCCS2 [Example 42, (Z)-3-(8-(4-(tert-butyl)phenyl)-7-cyano-3,4-dihydro-2H,6H-pyrimido[2,1-b][1,3]thiazin-6-ylidene)-1,1-dimethylurea]
5 | 10 to 100% | 100 to 200% |  | N#Cc1c(-c2ccc(C3CC3)nc2)nc2n(c1=O)CCCS2 [Example 181, 8-(6-cyclopropylpyridin-3-yl)-6-oxo-2H,3H,4H,6H-pyrimido[2,1-b][1,3]thiazine-7-carbonitrile]
6 | > 1000% | > 200% |  | CC1CSc2nc(-c3cnc(C(C)(C)C)nc3)c(C#N)c(=N)n2C1 (stereo not shown) [Example 39, 8-(2-(tert-butyl)pyrimidin-5-yl)-6-imino-3-methyl-3,4-dihydro-2H,6H-pyrimido[2,1-b][1,3]thiazine-7-carbonitrile]
7 | 100 to 500% | 10 to 50% |  | CC(C)(C)c1ccc(-c2nc3n(/c(=N\C(=O)C(F)(F)F)c2C#N)CCCS3)cc1 [Example 43, (Z)—N-(8-(4-(tert-butyl)phenyl)-7-cyano-3,4-dihydro-2H,6H-pyrimido[2,1-b][1,3]thiazin-6-ylidene)-2,2,2-trifluoroacetamide]
8 | 500 to 1000% | 100 to 200% |  | CC(C)(C)c1ncc(-c2nc3n(c(=O)c2C#N)CCCS3)cn1 [Example 176, 8-(2-tert-butylpyrimidin-5-yl)-6-oxo-2H,3H,4H,6H-pyrimido[2,1-b][1,3]thiazine-7-carbonitrile]
9 | 10 to 100% | 100 to 200% |  | CC1CCSc2nc(-c3ccc(C(C)(C)C)cc3)c(C#N)c(=O)n21 (stereo not shown) [Example 201, 8-(4-tert-butylphenyl)-3,4-dihydro-4-methyl-6-oxo-2H,6H-pyrimido[2,1-b][1,3]thiazine-7-carbonitrile]
10 | 100 to 500% | 100 to 200% |  | C[C@H]1CSc2nc(-c3ccc(C(C)(C)C)nc3)c(C#N)c(=O)n2C1 [Example 44, (R)-8-(6-(tert-butyl)pyridin-3-yl)-3-methyl-6-oxo-3,4-dihydro-2H,6H-pyrimido[2,1-b][1,3]thiazine-7-carbonitrile]
11 | 100 to 500% | 100 to 200% |  | C[C@H]1CSc2nc(-c3ccc(C(C)(C)C)nc3)c(C#N)c(=N)n2C1 [Example 64, (R)-8-(6-(tert-butyl)pyridin-3-yl)-6-imino-3-methyl-3,4-dihydro-2H,6H-pyrimido[2,1-b][1,3]thiazine-7-carbonitrile]
12 | 500 to 1000% | 100 to 200% |  | CC(C)(C)c1ccc(-c2nc3n(c(=O)c2C#N)CCCS3)cn1 [Example 174, 8-(6-tert-butyl-3-pyridinyl)-3,4-dihydro-6-oxo-2H,6H-pyrimido[2,1-b][1,3]thiazine-7-carbonitrile]
13 | 10 to 100% | 100 to 200% |  | CC(C)(C)c1ccc(-c2nc3n(c(=O)c2C#N)CCCS3)nc1 [Example 183, 8-(5-tert-butylpyridin-2-yl)-6-oxo-2H,3H,4H,6H-pyrimido[2,1-b][1,3]thiazine-7-carbonitrile]
14 | > 1000% | > 200% |  | C[C@@H]1CSc2nc(-c3ccc(C(C)(C)C)nc3)c(C#N)c(=N)n2C1 [Example 65, (S)-8-(6-(tert-butyl)pyridin-3-yl)-6-imino-3-methyl-3,4-dihydro-2H,6H-pyrimido[2,1-b][1,3]thiazine-7-carbonitrile]
15 | 10 to 100% | 100 to 200% |  | Cc1nc(C(C)(C)C)ccc1-c1nc2n(c(=O)c1C#N)CCCS2 [Example 182, 8-(6-tert-butyl-2-methylpyridin-3-yl)-6-oxo-2H,3H,4H,6H-pyrimido[2,1-b][1,3]thiazine-7-carbonitrile]
16 | 10 to 100% | 10 to 50% |  | CC(C)c1ccc(-c2ccc(-c3nc4n(c(=O)c3C#N)CCCS4)c(F)c2)cc1 [Example 198, 8-{2-fluoro-4[4-(propan-2-yl)phenyl]phenyl}-6-oxo-2H,3H,4H,6H-pyrimido[2,1-b][1,3]thiazine-7-carbonitrile]
17 |  | 10 to 50% | Inhibitor | N#Cc1c(-c2ccc(Cl)cc2)nc2n(c1=O)CCS2 [Example 209, 7-(4-chlorophenyl)-5-oxo-2H,3H,5H-[1,3]thiazolo[3,2-a]pyrimidine-6-carbonitrile]
18 | 10 to 100% | 10 to 50% |  | Cc1ccc(-c2ccc(-c3nc4n(c(=O)c3C#N)CCCS4)c(F)c2)cc1 [Example 197, 8-[2-fluoro-4-(4-methylphenyl)phenyl]-6-oxo-2H,3H,4H,6H-pyrimido[2,1-b][1,3]thiazine-7-carbonitrile]
19 | > 1000% | > 200% |  | C[C@@H]1CSc2nc(-c3ccc(C(C)(C)C)nc3)c(C#N)c(=O)n2C1 [Example 45, (S)-8-(6-(tert-butyl)pyridin-3-yl)-3-methyl-6-oxo-3,4-dihydro-2H,6H-pyrimido[2,1-b][1,3]thiazine-7-carbonitrile]
20 | < 10% | 10 to 50% |  | N#Cc1c(-c2ccc(C(F)(F)F)nc2)nc2n(c1=O)CCCS2 [Example 48, 6-oxo-8-(6-(trifluoromethyl)pyridin-3-yl)-3,4-dihydro-2H,6H-pyrimido[2,1-b][1,3]thiazine-7-carbonitrile]
21 | > 1000% | 100 to 200% |  | CC(C)(C)c1ccc(-c2nc3n(c(=N)c2C#N)CCCS3)cn1 [Example 38, 8-(6-(tert-butyl)pyridin-3-yl)-6-imino-3,4-dihydro-2H,6H-pyrimido[2,1-b][1,3]thiazine-7-carbonitrile]
22 | 10 to 100% | 10 to 50% |  | N#Cc1c(-c2ccc(C3CC3)cc2)nc2n(c1=O)CCCS2 [Example 189, 8-(4-cyclopropylphenyl)-6-oxo-2H,3H,4H,6H-pyrimido[2,1-b][1,3]thiazine-7-carbonitrile]
23 | > 1000% | 100 to 200% |  | CC1CSc2nc(-c3ccc(C(C)(C)C)nc3)c(C#N)c(=O)n2C1 (stereo not shown) [Example 175, 8-(6-tert-butylpyridin-3-yl)-3-methyl-6-oxo-2H,3H,4H,6H-pyrimido[2,1-b][1,3]thiazine-7-carbonitrile]
24 | 10 to 100% | 50 to 100% |  | CC(C)c1ccc(-c2nc3n(c(=O)c2C#N)CCS3)cc1 [Example 206, 5-oxo-7-[4-(propan-2-yl)phenyl]-2H,3H,5H-[1,3]thiazolo[3,2-a]pyrimidine-6-carbonitrile]
25 | 10 to 100% | 10 to 50% |  | CC(C)(C)c1ccc(-c2nc3n(c(=O)c2C#N)CC2(COC2)CS3)cc1 [Example 204, 8′-(4-tert-butylphenyl)-6′-oxo-4′,6′-dihydro-2′H-spiro[oxetane-3,3′-pyrimido[2,1-b][1,3]thiazine]-7′-carbonitrile]
26 | 100 to 500% | 50 to 100% |  | CC1CSc2nc(-c3ccc(N(C)C)nc3)c(C#N)c(=O)n2C1 (stereo not shown) [Example 67, 8-[6-(dimethylamino)pyridin-3-yl]-3-methyl-6-oxo-2H,3H,4H,6H-pyrimido[2,1-b][1,3]thiazine-7-carbonitrile]
